The subject of one series is Alternaria solani. Put plainly: Alternaria solani/tomato/Preventive (Action against Alternaria on Tomato). It counts as in vivo. The following applies: preventive spray, tomato plants cv. Roter Gnom, inoculated two days after application, assessed after 4 days, untreated controls infected over 80%, read-out: inhibit fungal infestation. The procedure:
Alternaria solani/tomato/Preventive (Action against Alternaria on Tomato) 4 weeks old tomato plants cv. Roter Gnom are treated with the formulated test compound in a spray chamber. Two days after application tomato plants are inoculated by spraying a spore suspension on the test plants. After an incubation period of 4 days at 22° C./18° C. and 95% r. h. in a greenhouse the disease incidence is assessed.

Another series relates to Botrytis cinerea. Briefly: Botrytis cinerea/tomato/preventive (Action against Botrytis on Tomato). Conditions: preventive spray, tomato plants cv. Roter Gnom, inoculated two days after application, assessed after 3 days, untreated controls infected over 80%, read-out: inhibit fungal infestation. The series is classed as in vivo. The procedure: Botrytis cinerea/tomato/preventive (Action against Botrytis on Tomato) 4 weeks old tomato plants cv. Roter Gnom are treated with the formulated test compound in a spray chamber. Two days after application tomato plants are inoculated by spraying a spore suspension on the test plants. After an incubation period of 3 days at 20° C. and 95% r. h. in a greenhouse the disease incidence is assessed.

For a further series, the system named is Puccinia recondita. Briefly: Puccinia recondita/wheat/preventive (Action against Brown Rust on Wheat). It counts as in vivo. The following applies: preventive spray, wheat plants cv. Arina, inoculated one day after application, assessed 11 days after inoculation, untreated controls infected over 80%, read-out: inhibits fungal infestation. The procedure: Puccinia recondita/wheat/preventive (Action against Brown Rust on Wheat) 1 week old wheat plants cv. Arina are treated with the formulated test compound in a spray chamber. One day after application wheat plants are inoculated by spraying a spore suspension (1×105 uredospores/ml) on the test plants. After an incubation period of 1 day at 20° C. and 95% r. h. plants are kept for 10 days 20° C./18° C. (day/night) and 60% r.h. in a greenhouse. The disease incidence is assessed 11 days after inoculation.

Series [1] relates to Magnaporthe grisea (Pyricularia oryzae). Put plainly: whole plant or invertebrate. It counts as in vivo. The following applies: read-out: inhibit fungal infestation.
For series [2], the system named is Pyrenophora teres (Helminthosporium teres). Put plainly: Pyrenophora teres (Helminthosporium teres)/barley/preventive (Action against Net Blotch on Barley). The series is classed as in vivo. The following applies: preventive spray, barley plants cv. Regina, inoculated two days after application, assessed after 4 days, untreated controls infected over 80%, read-out: inhibit fungal infestation. The procedure: Pyrenophora teres (Helminthosporium teres)/barley/preventive (Action against Net Blotch on Barley) 1-week-old barley plants cv. Regina are treated with the formulated test compound in a spray chamber. Two days after application barley plants are inoculated by spraying a spore suspension (2.6×10^4 conidia/ml) on the test plants. After an incubation period of 4 days at 20° C. and 95% r. h. the disease incidence is assessed.

A further series concerns Septoria tritici. Put plainly: Sentoria tritici/wheat/Preventive (Action against Septoria Leaf Spot on Wheat). The series is classed as in vivo. The following applies: Zymoseptoria tritici, preventive spray, wheat plants cv. Riband, inoculated one day after application, assessed 16-18 days after inoculation, untreated controls infected over 80%, read-out: inhibits fungal infestation. The procedure: Sentoria tritici/wheat/Preventive (Action against Septoria Leaf Spot on Wheat) 2 weeks old wheat plants cv. Riband are treated with the formulated test compound in a spray chamber. One day after application wheat plants are inoculated by spraying a spore suspension (10^6 conidia/ml) on the test plants. After an incubation period of 1 day at 22° C./21° C. and 95% r. h. plants are kept at 22° C./21° C. and 70% r.h. in a greenhouse. The disease incidence is assessed 16-18 days after inoculation.

The next series relates to Uncinula necator. Put plainly: Uncinula necator/grape/preventive (Action against Powdery Mildew on Grape). It counts as in vivo. The following applies: Erysiphe necator, preventive spray, grape seedlings cv. Gutedel, inoculated one day after application, assessed after 7 days, untreated controls infected over 80%, read-out: inhibit fungal infestation. The procedure:
Uncinula necator/grape/preventive (Action against Powdery Mildew on Grape) 5 weeks old grape seedlings cv. Gutedel are treated with the formulated test compound in a spray chamber. One day after application grape plants are inoculated by shaking plants infected with grape powdery mildew above the test plants. After an incubation period of 7 days at 24° C./22° C. and 70% r. h. under a light regime of 14/10 h (light/dark) the disease incidence is assessed.

This passage reports inhibition and melting point results from patent US20100022526A1, “PYRIDAZINE DERIVATIVES, PROCESSES FOR THEIR PREPARATION AND THEIR USE AS FUNGICIDES” (SYNGENTA CROP PROTECTION, INC., priority 2007, published 2010).

`Fc1ccc(-c2c(Cl)nnc(Cl)c2-c2c(F)cc(F)cc2F)cc1` [I.j. 198, 3,6-dichloro-4-(4-fluoro-phenyl)-5-(2,4,6-trifluoro-phenyl)-pyridazine] gave a melting point of 143 to 145 °C. For the same compound, the inhibition at 200 ppm with Alternaria solani was ≥ 80%. For the same compound, the inhibition at 200 ppm with Botrytis cinerea was ≥ 80%. Moreover, the inhibition at 200 ppm in the series with Puccinia recondita was ≥ 80%. The inhibition at 200 ppm in series [1] was ≥ 80%. The inhibition at 200 ppm in series [2] was ≥ 80%. The inhibition at 200 ppm with Septoria tritici was ≥ 80%. Besides, the inhibition at 200 ppm in the series on Uncinula necator was ≥ 80%.
Take `Fc1cc(F)c(-c2c(Cl)nnc(Cl)c2-c2ccc(Cl)cc2)c(F)c1` [I.k. 198, 3,6-dichloro-4-(4-chloro-phenyl)-5-(2,4,6-trifluoro-phenyl)-pyridazine]: the inhibition at 200 ppm (with Botrytis cinerea; in the series on Puccinia recondita; in series [1]; in series [2]; in the series on Septoria tritici; in the series on Uncinula necator) was ≥ 80% each time.
`COc1nnc(Cl)c(-c2c(F)cc(F)cc2F)c1-c1ccc(Br)cc1` [I.l. 199, 4-(4-bromophenyl)-6-chloro-3-methoxy-5-(2,4,6-trifluorophenyl)-pyridazine]: the melting point lay in the range of 113 to 119 °C. In the series on Alternaria solani, the inhibition at 200 ppm is ≥ 80%. In the series on Botrytis cinerea, the inhibition at 200 ppm was ≥ 80%. The inhibition at 200 ppm with Puccinia recondita was ≥ 80%. Further, the inhibition at 200 ppm in series [1] is ≥ 80%. The inhibition at 200 ppm in series [2] was ≥ 80%. Besides, the inhibition at 200 ppm with Septoria tritici is ≥ 80%. Also, the inhibition at 200 ppm in the series on Uncinula necator is ≥ 80%.
